Results taken from patent US20210244773A1, “DENTAL PULP STEM CELLS AND USES THEREOF” (priority 2018, published 2021).
Values joined by “and” are separate entries in the source; they are usually repeats but may differ in a detail not shown here. Equal entries are not always repeated.

Tests used:
Assay type in all cases: cell-based, human
DPSC = DPSC neuronal differentiation with TNF-alpha, lipoxin A4 or resolvin D1, flow cytometry (Example 3); conditions: for TNF-alpha-induced decrease in β III-tubulin expression: FIG. 6, both 10 and 100 nM, p<0.05; for neuronal differentiation of DPSC without TNF-alpha: added alone at either dose (10 or 100 nM), data not shown
Description: DPSC were isolated from the teeth of 7 healthy donors extracted during routine dental care. Samples were selected from our tooth biorepository based on the following donor characteristics: absence of medical comorbidities, no active medication use (aside from vitamin supplements), and absence of periodontal disease or tooth decay. The extracted pulp were plated and then cultured in basal medium, DMEM/F12+15% FBS supplemented with 100 U/mL non-essential amino acids (Gibco Life Technologies), 100 U/mL penicillin and streptomycin, and glutamine (Gibco Life Technologies). Outgrowing fibroblast-like cells appeared after 3-4 days and at that point the pulp was replated. The outgrowing cells were passaged after reaching 80% confluence and passage 4 was used for all experiments. Cells were seeded in duplicate with 2×10^4 cells/well. Neuronal differentiation was induced by replacing DMEM/F12+15% FBS culture media with neuronal differentiation media (NeuroCult NS-A Differentiation Kit-Human, StemCell Technologies Inc., Tukwila, Wash., USA) 48 hours after seeding. Cells were cultured under neuronal induction conditions for up to 21 days with culture media changed twice a week.
Varying concentrations of TNF-alpha (1, 10, 25, and 100 ng/mL, PeproTech, Rocky Hill, N.J., USA), lipoxin A4 (10 and 100 nM, Cayman Chemical, Ann Arbor, Mich., […], Cayman Chemical, Ann Arbor, Mich., USA) were added to the culture of both differentiated and non-differentiated cells starting 48 hours after seeding. In some experiments cells were treated with both TNF-alpha and lipoxin A4 or resolvin D1.
Expression of stem cell and neuronal cell markers was determined by flow cytometry. […] Cells were incubated for 1 hour at room temperature with the following primary antibodies against stem cell markers: rabbit anti-CD44 (Abcam, 1:30) and rabbit anti-OCT4 (Abcam, 1:200) and neuronal markers: rabbit anti-nestin (Abcam, 1:100), rabbit anti-doublecortin (Abcam, 1:50), mouse anti-β III-tubulin (Abcam, 1:100), and rabbit anti-NeuN (Abcam, 1:100). Fluorescence was achieved by incubating with secondary antibodies (Life Tech, Carlsbad, Calif., goat anti-rabbit IgG or goat anti-mouse IgG, dilution 1:500) for 1 hour at room temperature in a dark room. Cells were then subjected to flow cytometry and the percentage of cells expressing each marker was calculated.
Each analysis was performed in duplicate using cells from all donors. Median and interquartile ranges were calculated for each condition. Mann-Whitney tests were used for all statistical analyses; p<0.05 was considered significant.

[1] = test system: DPSC expression of IL-6, IL-8, IL-1β; assay: Inflammatory cytokine gene expression in DPSC by real-time PCR; conditions: all doses (1, 10, 25, 100 ng/ml), 24 hours
Description: Induction of inflammatory cytokine gene expression was determined by real-time PCR to optimize TNF-α treatment conditions. Total RNA was extracted from cells using Trizol (Life Technologies). 10 μL total RNA was reverse transcribed to cDNA using iScript cDNA Synthesis Kit (Bio-Rad, Hercules, Calif., USA). 1 μL cDNA used as template for real-time PCR amplification reactions using the iQ SYBR Green Supermix (Bio-Rad) in combination with […] of each gene-specific primer, according to manufacturer's instructions. Glyceraldehyde 3-phosphate dehydrogenase (GAPDH) was used as endogenous control. PCR reactions were conducted in duplicate using the following conditions: initial denaturation for 3 min at 95° C. followed by 40 cycles of 15 sec denaturation at 95° C. and 60 sec annealing at 60° C. Relative quantification was used for statistical analyses. The following primers were used: […]

dental pulp stem cells = assay: MTT metabolic activity assay of dental pulp stem cells
Description: The metabolic activity of cells was determined by 3-(4,5-dimethylthiazol-2-yl)-2,5-diphenyltetrazolium bromide (MTT) assay at various time points to assess TNF-α toxicity on dental pulp stem cells. Cells were incubated for 4 hours in 5 mg/mL thiazolyl blue tetrazolium bromide (Sigma Aldrich, St. Louis, Mo., USA), the precipitate was suspended with 2-propanol (Sigma Aldrich, St. Louis, Mo., USA), and absorbance was determined in triplicate.

[2] = 25 ng/ml TNF-alpha, 21 days of differentiation, versus absence of TNF-alpha

| Compound | β III-tubulin expression (percent of cells) (DPSC; 25 ng/ml TNF-alpha + 10 nM lipoxin A4) [%] | increase in β III-tubulin expression versus TNF-alpha alone (DPSC; 25 ng/ml TNF-alpha + 10 nM lipoxin A4, p=0.02) [%] | β III-tubulin expression versus TNF-alpha alone (DPSC; 25 ng/ml TNF-alpha + lipoxin A4 100 nM, p=0.03) | TNF-alpha-induced decrease in β III-tubulin expression (DPSC) | neuronal differentiation of DPSC without TNF-alpha (DPSC) | increase in β III-tubulin expression versus TNF-alpha alone (DPSC; 25 ng/ml TNF-alpha + 100 nM resolvin D1, p=0.02) [%] | β III-tubulin expression (percent of cells) (DPSC; 25 ng/ml TNF-alpha + 100 ng/ml resolvin D1) [%] | β III-tubulin expression versus TNF-alpha alone (DPSC; 25 ng/ml TNF-alpha + resolvin D1 10 nM, p=0.09) | cells expressing the early marker doublecortin (DPSC; 25 ng/ml TNF-alpha, 21 days of differentiation) | expression of early neuronal marker nestin (DPSC; [2]) | expression of stem cell marker CD44 (DPSC; [2]) | expression of stem cell marker OCT 3/4 (DPSC; [2]) | decrease in differentiated cells expressing β III-tubulin (DPSC; 25 ng/ml TNF-alpha, neuronal differentiation, decrease) | β-III tubulin expression (DPSC; FIG. 6, presence of TNF-alpha) | β III-tubulin expression (percent of cells) (DPSC; neural induction with 25 ng/ml TNF-alpha alone) [%] | DPSC expression of IL-6 ([1]; FIG. 4A) | DPSC expression of IL-8 ([1]; FIG. 4B) | DPSC expression of IL-1β ([1]; FIG. 4C) | toxicity to DPSC (succinic dehydrogenase metabolic activity) (dental pulp stem cells; TNF-alpha treatment) | metabolic activity (MTT) (dental pulp stem cells; neural induction with 25 ng/ml or 100 ng/ml TNF-alpha, 10 days, versus absence of TNF-alpha) |
| --- | --- | --- | --- | --- | --- | --- | --- | --- | --- | --- | --- | --- | --- | --- | --- | --- | --- | --- | --- | --- |
| CCCCC[C@H](O)/C=C/C=C\C=C\C=C\[C@@H](O)[C@@H](O)CCCC(=O)O [lipoxin A4] | 59 | 84 | Results were similar | mitigated | no reduction or improvement |  |  |  |  |  |  |  |  |  |  |  |  |  |  |  |
| CC/C=C\C[C@H](O)/C=C/C=C\C=C\C=C\[C@@H](O)[C@@H](O)C/C=C\CCC(=O)O [resolvin D1] |  |  |  | mitigated | no reduction or improvement | 78 | 57 | approached significance |  |  |  |  |  |  |  |  |  |  |  |  |
| TNF-alpha |  |  |  |  |  |  |  |  | non-significant increase | no difference | no difference | no difference | 70% and 59% | significant decrease | 32 | significant increases | significant increases | significant increases | not toxic | significantly greater metabolic activity |
